23 compounds from patent US8410126B2, “Pyrimidine inhibitors of PKTK2” (Boehringer Ingelheim International GmbH, priority 2009, dated 2013) can be followed below.

In general, IC50 refers to the concentration that inhibits the measured activity by half. Higher therefore signals weaker potency in that assay.

The structures appear in SMILES notation.

T1 sequence (Q05397 whole entry): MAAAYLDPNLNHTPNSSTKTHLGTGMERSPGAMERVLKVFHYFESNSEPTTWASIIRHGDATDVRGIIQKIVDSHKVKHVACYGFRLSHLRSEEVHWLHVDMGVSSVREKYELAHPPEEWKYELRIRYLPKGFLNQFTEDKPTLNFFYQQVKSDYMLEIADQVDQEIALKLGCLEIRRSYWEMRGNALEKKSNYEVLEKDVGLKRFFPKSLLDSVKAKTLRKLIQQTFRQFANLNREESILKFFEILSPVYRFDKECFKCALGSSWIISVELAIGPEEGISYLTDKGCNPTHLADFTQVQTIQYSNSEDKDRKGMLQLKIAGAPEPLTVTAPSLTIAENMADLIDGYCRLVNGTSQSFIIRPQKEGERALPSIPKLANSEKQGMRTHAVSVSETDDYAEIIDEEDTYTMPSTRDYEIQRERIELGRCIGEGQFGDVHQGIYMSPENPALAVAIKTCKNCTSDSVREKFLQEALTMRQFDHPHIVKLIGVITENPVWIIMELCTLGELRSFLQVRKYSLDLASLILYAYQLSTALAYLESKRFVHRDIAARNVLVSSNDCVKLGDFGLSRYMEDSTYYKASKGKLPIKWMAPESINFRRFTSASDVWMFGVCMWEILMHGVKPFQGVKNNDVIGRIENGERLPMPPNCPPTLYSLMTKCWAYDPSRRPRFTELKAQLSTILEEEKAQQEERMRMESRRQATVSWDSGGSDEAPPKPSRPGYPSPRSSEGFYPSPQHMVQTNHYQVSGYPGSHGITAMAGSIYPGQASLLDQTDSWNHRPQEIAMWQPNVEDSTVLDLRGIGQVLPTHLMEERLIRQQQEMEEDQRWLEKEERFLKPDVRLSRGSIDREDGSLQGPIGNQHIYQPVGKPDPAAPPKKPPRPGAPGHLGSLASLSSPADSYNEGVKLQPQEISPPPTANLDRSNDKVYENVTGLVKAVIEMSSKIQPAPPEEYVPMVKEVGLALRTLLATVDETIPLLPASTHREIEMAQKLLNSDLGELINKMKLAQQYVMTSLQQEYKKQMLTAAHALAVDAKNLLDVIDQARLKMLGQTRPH

The first experiment has as its target T1, PTK2 (Homo sapiens, UniProt Q05397).
T1 construct: purchased Invitrogen PV3832
Put plainly: PTK2 enzyme test Assay 2 (DELFIA, poly-Glu-Tyr substrate, PT66 antibody). The class given is biochemical. Particulars: Assay 2 (values marked *); 1 h pre-incubation, 50 μM ATP mix, final DMSO 0.5%. An excerpt:
This test uses active PTK2 enzyme (Invitrogen Code PV3832) and poly-Glu-Tyr (4:1, Sigma P-0275) as the kinase substrate. The kinase activity is detected by means of the phosphorylation of the substrate in a DELFIA™ assay. The phosphorylated substrate is detected with the europium-labelled phosphotyrosine antibody PT66 (Perkin Elmer, No.: AD0040).
In order to determine concentration-activity curves with PTK2-inhibitors the compounds are serially diluted first of all in 100% DMSO and then in kinase dilution buffer (20 mM TRIS/HCl pH 7.5, 0.1 mM EDTA, 0.1 mM EGTA, 0.286 mM sodium orthovanadate, 10% glycerol with the addition of freshly prepared BSA (fraction V, 1 mg/mL) and DTT (1 mM)) and 10 μL of each dilution are dispensed per well in a 96-well microtitre plate (clear U-shaped base plate, Greiner No. 650101) (the inhibitors are tested in duplicates) and mixed with 10 μL/well of PTK2 kinase (0.01 μg/well). PTK2 kinase is diluted accordingly beforehand with kinase dilution buffer. The diluted PTK2 inhibitor and the PTK2 kinase are pre-incubated for 1 h at RT and shaken at 500 revolutions per min. Then 10 μL/well poly-Glu-Tyr substrate (25 μg/well poly-Glu-Tyr, 0.05 μg/well biotinylated poly-Glu-Tyr dissolved in 250 mM TRIS/HCl pH 7.5, 9 mM DTT) are added. The reaction is started by the addition of 20 μL of ATP Mix (30 mM TRIS/HCl pH 7.5, 0.02% Brij, 0.2 mM sodium orthovanadate, 10 mM magnesium acetate, 0.1 mM EGTA, 1× phosphatase inhibitor cocktail 1 (Sigma, No.: P2850), 50 μM ATP (Sigma, No.: A3377; 15 mM stock solution))—the final concentration of DMSO is 0.5%. After 1 h kinase reaction (the plates are shaken at 500 rpm), the reaction is stopped by the addition of 12 μL/well of 100 mM EDTA, pH 8, and shaken for a further 5 min at RT (500 U/min). 55 μL of the reaction mixture are transferred into a streptavidin plate (Strepta Well High Bind (transparent, 96-well) made by Roche, No.: 11989685001) and incubated for 1 h at RT (shaking at 500 rpm). Then the microtitre plate is washed five times with 200 μL/well D-PBS (Invitrogen, No. 14190). 100 μL of a solution containing DELFIA Eu-N1 Anti-Phosphotyrosine PT66 antibody (Perkin Elmer, No.: AD0040, diluted 1:9000 in DELFIA test buffer (Perkin Elmer, No.: 1244-111)) is then added and it is incubated for 1 h at RT (shaking at 500 rpm). Then the plate is washed five times with 200 μL/well DELFIA washing buffer (Perkin Elmer, No.: 1244-114), 200 μL/well strengthening solution (Perkin Elmer, No.: 1244-105) is added and the whole is incubated for 10 min at RT (shaking at 300 rpm).
The time-delayed europium fluorescence is then measured in a microtitre plate reader (VICTOR^3, Perkin Elmer). The positive control consists of wells that contain solvent (0.5% DMSO in test buffer) and display uninhibited kinase activity. Wells that contain test buffer instead of enzyme act as a control for the background kinase activity.
The IC50 values are determined from concentration-activity analyses by iterative calculation using a sigmoid curve analysis algorithm (FIFTY, based on GraphPAD Prism Version 3.03) with a variable Hill coefficient.
`CCc1cc(Nc2ncc(C(F)(F)F)c(N[C@@H]3Cc4ccccc4[C@H]3N(C)S(C)(=O)=O)n2)c(OC)cc1N1CCN(C)CC1` [Example I-67, N-((1R,2R)-2-{2-[5-ethyl-2-methoxy-4-(4-methyl-piperazin-1-yl)-phenylamino]-5-trifluoromethyl-pyrimidin-4-ylamino}-indan-1-yl)-N-methyl-methanesulphonamide] gave an IC50 of 0.68 nM. This lies in the sub-nanomolar range.
The compound `CCc1cc(Nc2ncc(C(F)(F)F)c(N[C@@H]3Cc4ccccc4[C@H]3N(C)S(C)(=O)=O)n2)c(OC)cc1N1CCN(C(C)(C)C)CC1` [Example I-89] returned a 50% inhibitory concentration (IC50) of 0.68 nM.
`COc1ccc(C(=O)N(C)C2CCN(C)CC2)cc1Nc1ncc(C(F)(F)F)c(N[C@@H]2Cc3ccccc3[C@H]2N(C)S(C)(=O)=O)n1` [Example I-81]: the IC50 came to 0.43 nM.
Same read-out and setting: the value for `COc1cc(N2CCNCC2)c(C)cc1Nc1ncc(C(F)(F)F)c(N[C@@H]2Cc3ccccc3[C@H]2N(C)S(C)(=O)=O)n1` [Example I-74, N-{(1R,2R)-2-[2-(2-methoxy-5-methyl-4-piperazin-1-yl-phenylamino)-5-trifluoromethyl-pyrimidin-4-ylamino]-indan-1-yl}-N-methyl-methanesulphonamide] was 0.66 nM; that for `COc1cc(N2CCN(C(C)(C)C)CC2)c(C)cc1Nc1ncc(C(F)(F)F)c(N[C@@H]2Cc3ccccc3[C@H]2N(C)S(C)(=O)=O)n1` [Example I-78, N-((1R,2R)-2-{2-[4-(4-tert-butyl-piperazin-1-yl)-2-methoxy-5-methyl-phenylamino]-5-trifluoromethyl-pyrimidin-4-ylamino}-indan-1-yl)-N-methyl-methanesulphonamide] was 0.83 nM; that for `COc1cc(NC(=O)N(C)C)ccc1Nc1ncc(C(F)(F)F)c(N[C@@H]2Cc3ccccc3[C@H]2N(C)S(C)(=O)=O)n1` [Example I-79] was 0.23 nM.
On the same count and under the same terms, for `COc1cc(NC(=O)C2CCN(C)C2)ccc1Nc1ncc(C(F)(F)F)c(N[C@@H]2Cc3ccccc3[C@H]2N(C)S(C)(=O)=O)n1` (some centres unmarked) [Example I-72] the value was 0.74 nM.

In a further experiment the target is T1, PTK2. Briefly: PTK2 enzyme test Assay 1 (DELFIA, poly-Glu-Tyr substrate, PT60 antibody). As to conditions: Assay 1 (values without *); 1 h pre-incubation, 50 μM ATP mix, final DMSO 2%. In kind it is biochemical. As to the method:
This test uses active PTK2 enzyme (Invitrogen Code PV3832) and poly-Glu-Tyr (4:1, Sigma P-0275) as the kinase substrate. The kinase activity is detected through the phosphorylation of the substrate in a DELFIA™ assay. The phosphorylated substrate is detected with the europium-labelled phosphotyrosine antibody PT60 (Perkin Elmer, No.: AD00400).
In order to determine concentration-activity curves with PTK2-inhibitors the compounds are serially diluted in 10% DMSO/H2O and 10 μL of each dilution are placed in each well of a 96-well microtitre plate (clear plate with a U-shaped base, Greiner No. 650101) (the inhibitors are tested in duplicates) and mixed with 10 μL/well of PTK2 kinase (0.01 μg/well). PTK2 kinase has been correspondingly diluted beforehand with kinase dilution buffer (20 mM TRIS/HCl pH 7.5, 0.1 mM EDTA, 0.1 mM EGTA, 0.286 mM sodium orthovanadate, 10% glycerol with the addition of freshly prepared BSA (fraction V, 1 mg/mL) and DTT (1 mM)). The test compound and the PTK2 kinase are pre-incubated for 1 h at RT and shaken at 500 revolutions per min. The reaction is started by the addition of 10 μL/well poly (Glu,Tyr) substrate (25 μg/well poly (Glu, Tyr), 0.05 μg/well biotinylated poly (Glu,Tyr) dissolved in 250 mM TRIS/HCl pH 7.5, 9 mM DTT)—the final concentration of DMSO is 2%. Then 20 μL of ATP Mix (30 mM TRIS/HCl pH 7.5, 0.02% Brij, 0.2 mM sodium orthovanadate, 10 mM magnesium acetate, 0.1 mM EGTA, 1× phosphatase inhibitor cocktail 1 (Sigma, No.: P2850), 50 μM ATP (Sigma, No.: A3377; 15 mM stock solution)) are added. After 1 h of kinase reaction (the plates are shaken at 500 rpm), the reaction is stopped by the addition of 12 μL/well 100 mM EDTA, pH 8.0 and shaken for a further 5 min at RT (500 rpm). 55 μL of the reaction mixture are transferred into a streptavidin plate (Strepta Well High Bind (transparent, 96-well) made by Roche, No.: 11989685001) and incubated for 1 h at RT (shaking at 500 rpm). Then the microtitre plate is washed three times with 200 μL/well D-PBS (Invitrogen, No. 14190). 100 μL of a solution containing DELFIA Eu-N1 Anti-Phosphotyrosine PT60 antibody (Perkin Elmer, No.: AD0040, diluted 1:2000 in DELFIA test buffer (Perkin Elmer, No.: 1244-111)) is then added and the mixture is incubated for 1 h at RT (shaking at 500 rpm). Then the plate is washed three times with 200 μL/well DELFIA washing buffer (Perkin Elmer, No.: 1244-114), 200 μL/well strengthening solution (Perkin Elmer, No.: 1244-105) are added and the mixture is incubated for 10 min at RT (shaking at 300 rpm).
The time-delayed europium fluorescence is then measured in a microtitre plate reader (VICTOR^3, Perkin Elmer). […] Wells that contain test buffer instead of enzyme are used as a control of the background kinase activity.
The IC50 values are determined from analyses of the concentration activity by iterative calculation with the aid of a sigmoid curve analysis algorithm (FIFTY, based on GraphPAD Prism Version 3.03) with a variable Hill coefficient.
As to `COc1cc(C(=O)NC2CCN(C)CC2)ccc1Nc1ncc(C(F)(F)F)c(N[C@@H]2Cc3ccccc3[C@H]2NS(C)(=O)=O)n1` [Example I-8], the 50% inhibitory concentration (IC50) was found to be 2 nM.
Compound `CNC(=O)c1ccc(Nc2ncc(C(F)(F)F)c(N[C@@H]3Cc4ccccc4[C@H]3NC(C)=O)n2)c(OC)c1` [Example I-18] registered an IC50 of 2 nM.
Compound `COCCNC(=O)c1ccc(Nc2ncc(C(F)(F)F)c(N[C@@H]3Cc4ccccc4[C@H]3N(C)S(C)(=O)=O)n2)c(OC)c1` [Example I-45] had an IC50 of 2 nM.
On the same count and under the same terms, the value for `COc1cc(C(=O)NCCN(C)C)c(C)cc1Nc1ncc(C(F)(F)F)c(N[C@@H]2Cc3ccccc3[C@H]2N(C)S(C)(=O)=O)n1` [Example I-54] was 0.84 nM; that for `COc1cc(C(=O)NC2CCC(N3CCN(CC4CC4)CC3)CC2)ccc1Nc1ncc(C(F)(F)F)c(N[C@@H]2Cc3ccccc3[C@H]2NC(C)=O)n1` (some centres unmarked) [Example I-12] was 4 nM.
On the same count and under the same terms, the value for `COc1cc(Nc2ncc(C(F)(F)F)c(N[C@@H]3Cc4ccccc4[C@H]3N(C)S(C)(=O)=O)n2)ccc1C(=O)NC1CCN(C)CC1` [Example I-64] was 0.76 nM; that for `COc1cc(N2CCN(C3COC3)CC2)ccc1Nc1ncc(C(F)(F)F)c(N[C@@H]2Cc3ccccc3[C@H]2N(C)S(C)(=O)=O)n1` [Example I-57] was 3 nM.
The same measure, in the same setting: for `COc1cc(N2CCN(CC(=O)N(C)C)CC2)ccc1Nc1ncc(C(F)(F)F)c(N[C@@H]2Cc3ccccc3[C@H]2N(C)S(C)(=O)=O)n1` [Example I-40] the value was 3 nM; for `CONC(=O)c1ccc(Nc2ncc(C(F)(F)F)c(N[C@@H]3Cc4ccccc4[C@H]3NC(C)=O)n2)c(OC)c1` [Example I-17], 2 nM.
Turning to `COc1cc(C(=O)NC2CCC(N3CCOCC3)CC2)ccc1Nc1ncc(C(F)(F)F)c(N[C@@H]2Cc3ccccc3[C@H]2NC(C)=O)n1` (some centres unmarked) [Example I-19], the IC50 turned out to be 3 nM.
In turn, `COCCN1CCC(NC(=O)c2ccc(Nc3ncc(C(F)(F)F)c(N[C@@H]4Cc5ccccc5[C@H]4NC(C)=O)n3)c(OC)c2)CC1` [Example I-13] gave a 50% inhibitory concentration (IC50) of 3 nM. This counts as single-digit nanomolar.
Still for that read-out and setting: for `COc1cc(C(=O)NCCN(C)C)ccc1Nc1ncc(C(F)(F)F)c(N[C@@H]2Cc3ccccc3[C@H]2NS(C)(=O)=O)n1` [Example I-3, N-(2-dimethylamino-ethyl)-4-[4-((1R,2R)-1-methanesulphonylamino-indan-2-ylamino)-5-trifluoromethyl-pyrimidin-2-ylamino]-3-methoxy-benzamide] the value was 2 nM; for `COCCN1CCN(c2ccc(Nc3ncc(C(F)(F)F)c(N[C@@H]4Cc5ccccc5[C@H]4N(C)S(C)(=O)=O)n3)c(OC)c2)CC1` [Example I-84], 1 nM; for `CNC(=O)c1ccc(Nc2ncc(C(F)(F)F)c(N[C@@H]3Cc4ccccc4[C@H]3NS(C)(=O)=O)n2)c(OC)c1` [Example I-10], 2 nM.
Still for that read-out and setting: the value for `COc1nc(C)ccc1Nc1ncc(C(F)(F)F)c(N[C@@H]2Cc3ccccc3[C@H]2N(C)S(C)(=O)=O)n1` [Example I-96] was 11 nM; that for `CNC(=O)c1cc(OC)c(Nc2ncc(C(F)(F)F)c(N[C@@H]3Cc4ccccc4[C@H]3N(C)S(C)(=O)=O)n2)cc1F` [Example I-49] was 6 nM.
